Read-outs that look alike come from different tables or passages of the source.
How the values were obtained:
[1] = tested on: E. coli K-12 MG1655 rpsL K42N (DA49828); assay: AgSol-antibiotic synergy screening assay / MIC; format: cell-based; conditions: Escherichia coli
Method: (§1) The MIC (Minimal Inhibitory Concentration) of a bacterium to a certain antimicrobial agent gives a quantitative estimate of the susceptibility. MIC is defined as the lowest concentration of antimicrobial agent required to inhibit growth of the organism. The principle is simple: Agar plates, tubes or microtitre trays with two-fold dilutions of antibiotics are inoculated with a standardized inoculum of the bacteria and incubated under standardized conditions following NCCLS guidelines. The next day, the MIC is recorded as the lowest concentration of antimicrobial agent with no visible growth. The MIC informs you about the degree of resistance and might give you important information about the resistance mechanism and the resistance genes involved. MIC-determination performed as agar dilution is regarded as the gold standard for susceptibility testing (Source: Global Salm-Surv—A global Salmonella surveillance and laboratory support project of the World Health Organization (4th Ed. April 2002, modified November 2010))
(§2) The Minimum Inhibitory Concentration (MIC) of nanosilver (silver) was determined by two-fold dilution series in NaCl free Nutrient Broth (Sigma-Aldrich) in 15 ml screw cap tubes. The tubes were incubated in the dark over night at 37° C. without shaking. The MIC was determined as the lowest concentration of nanosilver (silver) at which no visible growth was observed.
(§3) Antibiotic stock solutions were serially diluted in 2-fold steps in pre-warmed (37° C.) nutrient broth (NB) to prepare an antibiotic concentration gradient above and below the minimal inhibitory concentration (MIC) of antibiotic (Table 4). 50 μl of prepared dilutions were aliquoted into a 96-well round bottom plate (Nunc, Thermo Fisher) for the screening assay.
(§4) Silver formulation (AgSol1000 (particles with 19 Ag per silica particle), AgSol300 (particles with 6 Ag per silica particle, AgNO3), aluminum coated silica beads (159/500 (silica particles with aluminium silicate coating)) and uncoated silica beads (15/500) were diluted in pre-warmed (37° C.) NB. Bindzil®15/500 is an unmodified silica sol, whereas Bindzil®159/500 is a aluminosilicate modified silica sol. Bindzil® is sold by Akzo Nobel AB.
(§5) 40 μl of the prepared dilutions were added to the 96-well plate containing antibiotic gradient to reach the final silver concentration of ¼×MICAgSol (silver) (specific for the microorganism used) (Table 5).
(§6) Overnight (16-20 h) cultures of 3 biological replicates of the following microorganisms E. coli K-12 MG1655 (DA4201), E. coli K-12 MG1655 rpsL K42N (DA49828), Pseudomonas aeruginosa PAO1 (DA6215) or Staphylococcus aureus USA300 JE2 (DA28823) were grown in NB till saturation (37° C. incubator with 190 rpm shaking). Cultures were diluted in NB to 10^7 CFU/ml and 10 μl of the dilution were added to the 96-well plate containing antibiotic gradient and silver formulations or the bead controls to reach the final concentration of 10^5 CFU/well in 100 μl total volume per well. 3 technical replicates (3 wells) of specific antibiotic concentration in combination with silver and microorganism were used. A control plate containing bacterial cells mixed with only antibiotic gradient was always included too.
(§7) The prepared plate was incubated in 37° C. incubator without shaking in the dark for 16-20 h and the optical density (OD620) of each well was measured in plate reader Multiscan FC (Thermo Fisher).

[2] = tested on: S. enterica Typhimurium LT2; assay: AgSol-antibiotic synergy screening assay; format: cell-based, Salmonella enterica; conditions: Salmonella; FIGS. 2A-2F
Method: as §3, §4, §5, §7

[3] = tested on: E. coli K-12 MG1655 (DA4201); assay: AgSol-antibiotic synergy screening assay / MIC (Ag/Antibiotic screen); format: cell-based, Escherichia coli; conditions: for MIC: Escherichia coli, MG1655, antibiotic alone
Method: as §1, §2, §3, §4, §5, §6, §7

`[H]/N=C(/N)N[C@H]1[C@H](O)[C@@H](O)[C@H](O[C@@H]2O[C@@H](C)[C@](O)(C=O)[C@H]2O[C@@H]2O[C@@H](CO)[C@H](O)[C@@H](O)[C@@H]2NC)[C@@H](N/C(N)=N\[H])[C@@H]1O` [Streptomycin] was tested, and the MIC [1] was 2000 µg/mL, the “synergetic effect of antibiotic in combination with silver” value [2] was “stronger synergetic effect” and the MIC ([3]; E. coli (DA4201), values used for antibiotic gradient, read-out: MIC) was 0.5 µg/mL. For the same compound, the MIC ([3]; nutrient broth, read-out: Antibiotic MIC, NB) was 0.5 µg/mL, the “fold increase in effect with AgSol vs antibiotic alone” value ([3]; Table 6, E. coli) was 17 fold and the “Antibiotic MIC, NB + AgSol1000” value ([3]; antibiotic in combination with AgSol1000 at ¼ × MIC silver, nutrient broth) was 0.03 µg/mL. The “Fold change (antibiotic MIC, NB vs NB + AgSol1000)” value ([3]; dash = MIC unchanged) was 17x and the “synergistic antibacterial effect of antibiotic in combination with AgSol” value ([3]; vs antibiotic alone, E. coli MG 1655 K-12) was “markedly improved synergistic effect”.
